Measurements taken from patent US5506217A, “Phosphonates as anti-cancer agents” (The University of British Columbia, priority 1994, dated 1996).
Where two headings read alike, the source gives them in different places.

Columns and labels:
B-16/F10 melanoma cells = assay: B-16/F10 melanoma metastasis in C57BL/6 mice; type: in vivo; conditions: 10 mg/kg IV (day 0, 4 and 8)
Method: Highly metastatic B-16/F10 melanoma cells were injected into the tail veins of female C57BL/6 mice (1×10^5 cells per mouse). Treatment of one group of mice with the phosphonate compound of the above formula (compound VIII), dissolved into 0.5mL ethanol, 0.5 mL cremaphor and 9.0 mL phosphate buffered saline, began three days after the tumor cells were injected. lntramuscular injections of 0.2 mL of the phosphonate emulsion (10 mg/kg/day) were given for 5 days per week for 2 weeks. A second group of mice were treated with Adriamycin (10 mg/kg given intravenously on days 0, 4 and 8) as a known anti-cancer drug control group, while a third group of mice received the vehicle emulsion alone. The mice were examined every day for general health, behaviour and body weight. Counts of metastatic melanomic tumor colonies found in the lungs, general observations of metastasis to distant organs and examination of organs (liver, kidneys, lungs and spleen) were taken at autopsy 4 weeks after treatment.

WEHI-3B tumor cells [1] = assay: 3H-thymidine incorporation assay; type: cell-based; conditions: Mus musculus, WEHI3B; for viability at 6.25 µM / viability at 12.5 µM / viability at 25 µM / viability at 50 µM: percent [3H]thymidine uptake, WEHI-3B, read-out: Cell Viability (% of Control); for viability at 12.5 µM: 12.50 μM
Method: (§1) Experiments were performed using a number of different rumor cell lines. Tumor cells were cultured in RPMI-1640 medium supplemented with 10% fetal bovine serum, penicillin (50 units/mL), streptomycin (50 μg/mL) and mercaptoethanol (5 μg/mL) in an atmosphere of 5% CO2. The cells were passaged weekly by serial 1/10 to 1/10,000 dilutions. The cell viability and growth were constantly monitored by staining with trypan blue exclusion dye or the incorporation of tritiated thymidine.
(§2) Inhibition of ^3 H-thymidine incorporation into the DNA of cells by a test compound is an indirect measurement of cell kill or growth inhibition, and reflects the anti-cancer activity of the compound.
Tumor cells (2×104 ^4 cells/well) were placed in 200 μL of medium in 96-well plastic microtiter plates; a further 5 μL of medium either with or without phosphonate was added. […] The cells were then harvested using a Brandel cell harvester (model M-12) and collected on Whatman glass microfilters. The radioactivity associated with the filters was quantified in a liquid scintillation counter, and the amount of ^3 H-thymidine incorporated into tumor cells treated with the phosphonate compound was calculated as a percentage of the amount of ^3 H-thymidine incorporated into untreated tumor cells.
The biological activities of 4-hexadecylthio-3(S ) -3-methoxybutane-l-phosponocholine and its enantiomer 4-hexadecylthio-3(R)-3-methoxybutane-1-phosphonocholine were studied on several cancer cell lines. […] The cell viability, was determined as percent[^3 H]thymidine uptake into the cell DNA. The following results are mean of five samples ± S.D.

WEHI-3B tumor cells [2] = assay: colonogenic cell survival assay; type: cell-based; conditions: Mus musculus, WEHI3B, 120 h, methyl cellulose medium, five days, read-out: WEHI-3B Colonies Formed (Percentage of Control)
Method: Inhibition of colony formation in soft agar medium (colonogenic cell survival assay) is a more rigorous and direct measurement of cell kill or growth inhibition, and reflects the anti-cancer activity of the test compound. Briefly, tumor cells were cultured in petri dishes in methylcellulose, with or without a phosphonate test compound, and the number of colonies formed during a 5-day incubation period were counted.
Table 17 tabulates data obtained with two differrent phosphonate analogs using a colonogenic assay. Colonogenic assay is one of the most trusted tests for determination of effectiveness of an anti-cancer agent. The test is based on the formation of tumor colonies in vitro in a methyl cellulose or soft agar medium. The following results were obtained with the formation of colonies in methyl cellulose medium after five days in the presence or absence of four phosphonate analogs, two with a thioalkyl chain and two with an alkyloxy chain.

HL-60 tumor cells = assay: 3H-thymidine incorporation assay; type: cell-based; conditions: Homo sapiens, HL-60 cells, read-out: Thymidine uptake (% of control)
Method: as §1, §2
Tumor cells (2×104 ^4 cells/well) were placed in 200 μL of medium in 96-well plastic microtiter plates; a further 5 μL of medium either with or without phosphonate was added. After incubation for 24, 48 or 72 hours at 37° C. in a humidified atmosphere containing 5% CO2, the wells were pulsed with 0.1 μCi of ^3 H-thymidine for an additional 24 hours. The cells were then harvested using a Brandel cell harvester (model M-12) and collected on Whatman glass microfilters. The radioactivity associated with the filters was quantified in a liquid scintillation counter, and the amount of ^3 H-thymidine incorporated into tumor cells treated with the phosphonate compound was calculated as a percentage of the amount of ^3 H-thymidine incorporated into untreated tumor cells.

[3] = 24 hours, read-out: Thymidine uptake (% of control)
[4] = 48 hours, WEHI-3B cells, read-out: Thymidine uptake (% of control)
[5] = Table 3: 48 hours in title (text: 72 hours), WEHI-3B cells, read-out: Thymidine uptake (% of control)
[6] = Table 3: 48 hours in title (text: 72 hours)

For `COc1cccc2c1C(=O)c1c(O)c3c(c(O)c1C2=O)C[C@@](O)(C(=O)CO)C[C@@H]3O[C@H]1C[C@H](N)[C@H](O)[C@H](C)O1` [Adriamycin, reference compound], the “melanomic tumor colonies in the lungs (in words)” value (B-16/F10 melanoma cells) was “none of the Adriamycin-treated mice developed melanomic tumor colonies in their lungs”, the “Melanomic tumor colonies found in the lungs at autopsy” value (“Melanomic tumor colonies found” below) (B-16/F10 melanoma cells; Mouse 1) was 0 and the “Melanomic tumor colonies found” value (B-16/F10 melanoma cells; Mouse 2) was 0. For the same compound, the “Melanomic tumor colonies found” value (B-16/F10 melanoma cells; Mouse 3) was 0, the “Melanomic tumor colonies found” value (B-16/F10 melanoma cells; Mouse 4) was 0 and the “Melanomic tumor colonies found” value (B-16/F10 melanoma cells; Mouse 5) was 0. The “Melanomic tumor colonies found” value (B-16/F10 melanoma cells; Mouse 6) was 0.

In the case of `CCCCCCCCCCCCCCCCSC[C@H](CCP(=O)([O-])OCC[N+](C)(C)C)OC` [Compound 1, 4hexadecylthio-3-O-methyl-3(S)-butane-phosphonocholine], the viability at 6.25 µM (WEHI-3B tumor cells [1]) is reported as 55 ± 0.5%, the viability at 12.5 µM (WEHI-3B tumor cells [1]) is reported as 31 ± 3.4% and the viability at 25 µM (WEHI-3B tumor cells [1]) is reported as 21 ± 0.2%. For the same compound, the viability at 50 µM (WEHI-3B tumor cells [1]) was 2 ± 1.4%, the activity at 0.6 µM (WEHI-3B tumor cells [2]) was 88% and the activity at 1.25 µM (WEHI-3B tumor cells [2]) was 95%. The activity at 2.5 µM (WEHI-3B tumor cells [2]) was 55%, the activity at 5 µM (WEHI-3B tumor cells [2]) was 52% and the activity at 10 µM (WEHI-3B tumor cells [2]) was 22%. It also gave an activity at 20 µM (WEHI-3B tumor cells [2]) of 9%.

Compound `CCCCCCCCCCCCCCCCSC[C@@H](CCP(=O)([O-])OCC[N+](C)(C)C)OC` [Compound 2, 4hexadecylthio-3-O-methyl-3(R)-butane-phosphonocholine] has a viability at 6.25 µM (WEHI-3B tumor cells [1]) of 61 ± 0.4%, a viability at 12.5 µM (WEHI-3B tumor cells [1]) of 24 ± 2.7% and a viability at 25 µM (WEHI-3B tumor cells [1]) of 22 ± 4.6%. For the same compound, the viability at 50 µM (WEHI-3B tumor cells [1]) was 12 ± 1.2%, the activity at 0.6 µM (WEHI-3B tumor cells [2]) was 54% and the activity at 1.25 µM (WEHI-3B tumor cells [2]) was 44%. It also gave an activity at 2.5 µM (WEHI-3B tumor cells [2]) of 36%, an activity at 5 µM (WEHI-3B tumor cells [2]) of 21% and an activity at 10 µM (WEHI-3B tumor cells [2]) of 5%. It also gave an activity at 20 µM (WEHI-3B tumor cells [2]) of 0%.

With `CCCCCCCCCCCCCCCCCCOCC(CP(=O)([O-])OCC[N+](C)(C)C)OC` (stereo not shown) [compound V] the activity at 0.62 µM (WEHI-3B tumor cells [1]; [3]) was 137 ± 6%, the activity at 0.62 µM (WEHI-3B tumor cells [1]; [4]) was 93 ± 6% and the activity at 0.62 µM (WEHI-3B tumor cells [1]; [5]) was 85 ± 3%. For the same compound, the activity at 1.25 µM (WEHI-3B tumor cells [1]; [3]) was 93 ± 7%, the activity at 1.25 µM (WEHI-3B tumor cells [1]; [4]) was 90 ± 5% and the activity at 1.25 µM (WEHI-3B tumor cells [1]; [5]) was 86 ± 4%. For the same compound, the activity at 2.5 µM (WEHI-3B tumor cells [1]; [3]) was 91 ± 4%, the activity at 2.5 µM (WEHI-3B tumor cells [1]; [4]) was 86 ± 8% and the activity at 2.5 µM (WEHI-3B tumor cells [1]; [5]) was 82 ± 6%. For the same compound, the activity at 5 µM (WEHI-3B tumor cells [1]; [3]) was 88 ± 11%, the activity at 5 µM (WEHI-3B tumor cells [1]; [4]) was 61 ± 6% and the activity at 5 µM (WEHI-3B tumor cells [1]; [5]) was 60 ± 4%. The activity at 10 µM (WEHI-3B tumor cells [1]; [3]) was 76 ± 6%, the activity at 10 µM (WEHI-3B tumor cells [1]; [4]) was 23 ± 2% and the activity at 10 µM (WEHI-3B tumor cells [1]; [5]) was 26 ± 3%. It also gave an activity at 20 µM (WEHI-3B tumor cells [1]; [3]) of 48 ± 4%, an activity at 20 µM (WEHI-3B tumor cells [1]; [4]) of 18 ± 8% and an activity at 20 µM (WEHI-3B tumor cells [1]; [5]) of 10 ± 3%. It also gave an activity at 40 µM (WEHI-3B tumor cells [1]; 40 μM, 24 hours, read-out: Thymidine uptake (% of control)) of 43 ± 15%, an activity at 0.62 µM (HL-60 tumor cells; 48 hours) of 84 ± 5% and an activity at 0.62 µM (HL-60 tumor cells; [6]) of 93 ± 4%. It also gave an activity at 1.25 µM (HL-60 tumor cells; 48 hours) of 76 ± 4%, an activity at 1.25 µM (HL-60 tumor cells; [6]) of 81 ± 4% and an activity at 2.5 µM (HL-60 tumor cells; 48 hours) of 63 ± 4%. For the same compound, the activity at 2.5 µM (HL-60 tumor cells; [6]) was 66 ± 3%, the activity at 5 µM (HL-60 tumor cells; 48 hours) was 24 ± 3% and the activity at 5 µM (HL-60 tumor cells; [6]) was 16 ± 4%. The activity at 10 µM (HL-60 tumor cells; 48 hours) was 3 ± 2%, the activity at 10 µM (HL-60 tumor cells; [6]) was 5 ± 1% and the activity at 20 µM (HL-60 tumor cells; 48 hours) was 1%. The activity at 20 µM (HL-60 tumor cells; [6]) was 1 ± 0.9%.
